This note sets out measurements from the supplement of paper PMC10307832.

Common to all, as to experiment: relative viability (nuclei count vs DMSO), 5 days (fraction); higher = more cells survive
Compound in the assay “AZD8055 + Tozasertib”: COc1ccc(-c2ccc3c(N4CCOC[C@@H]4C)nc(N4CCOC[C@@H]4C)nc3n2)cc1CO [AZD8055] + Cc1cc(Nc2cc(N3CCN(C)CC3)nc(Sc3ccc(NC(=O)C4CC4)cc3)n2)n[nH]1 [Tozasertib] (partner 0.1 µM)
The gist of the method: (§1)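 Lung cancer cell lines were pin-tool dosed in 1536-well plates on the day after seeding, with either a lone drug or a fixed anchor-drug dose plus five library-drug doses (not always all listed) in √10 steps. Nuclei were counted on 4× images after 5 days. Relative viability is the ratio of treated-well to vehicle-well nuclei counts, with each value a median of duplicate plates.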

Compound in the assay “AZD8055 + OSI-027”: COc1ccc(-c2ccc3c(N4CCOC[C@@H]4C)nc(N4CCOC[C@@H]4C)nc3n2)cc1CO [AZD8055] + COc1cccc2cc(-c3nc([C@H]4CC[C@H](C(=O)O)CC4)n4ncnc(N)c34)[nH]c12 [OSI-027] (partner 0.5 µM)
The gist of the method:
as §1

Compound in the assay “AZD8055 + Linsitinib”: COc1ccc(-c2ccc3c(N4CCOC[C@@H]4C)nc(N4CCOC[C@@H]4C)nc3n2)cc1CO [AZD8055] + C[C@]1(O)C[C@@H](c2nc(-c3ccc4ccc(-c5ccccc5)nc4c3)c3c(N)nccn32)C1 [Linsitinib] (partner 1 µM)
The procedure, abridged:
as §1

Compound in the assay “AZD8055 + Crizotinib”: COc1ccc(-c2ccc3c(N4CCOC[C@@H]4C)nc(N4CCOC[C@@H]4C)nc3n2)cc1CO [AZD8055] + C[C@@H](Oc1cc(-c2cnn(C3CCNCC3)c2)cnc1N)c1c(Cl)ccc(F)c1Cl [Crizotinib] (partner 1 µM)
The gist of the method:
as §1

NCI-H650: the relative viability turned out to be 0.817 with AZD8055 + Tozasertib (first compound 0.01 µM); 0.711 with AZD8055 + Tozasertib (first compound 0.03162 µM); 0.601 in the assay with AZD8055 + Tozasertib (first compound 0.1 µM); 0.381 in the assay with AZD8055 + Tozasertib (first compound 0.3162 µM); 0.333 in the assay with AZD8055 + Tozasertib (first compound 1 µM); 0.528 with AZD8055 + OSI-027 (first compound 0.01 µM). The relative viability with AZD8055 + OSI-027 (first compound 0.03162 µM) is 0.492; in the assay with AZD8055 + OSI-027 (first compound 0.1 µM), 0.602; with AZD8055 + OSI-027 (first compound 0.3162 µM) it was 0.368; in the assay with AZD8055 + OSI-027 (first compound 1 µM), 0.344; with AZD8055 + Linsitinib (first compound 0.01 µM) it was 0.889; in the assay with AZD8055 + Linsitinib (first compound 0.03162 µM), 0.575. The relative viability in the assay with AZD8055 + Linsitinib (first compound 0.1 µM) came out at 0.556; in the assay with AZD8055 + Linsitinib (first compound 0.3162 µM), 0.342; in the assay with AZD8055 + Linsitinib (first compound 1 µM) it was 0.293; with AZD8055 + Crizotinib (first compound 0.01 µM) it was 0.763; in the assay with AZD8055 + Crizotinib (first compound 0.03162 µM) it was 0.712; with AZD8055 + Crizotinib (first compound 0.1 µM), 0.626. Further, the relative viability was 0.395 in the assay with AZD8055 + Crizotinib (first compound 0.3162 µM) and 0.292 with AZD8055 + Crizotinib (first compound 1 µM).
As for NCI-H647, the relative viability in the assay with AZD8055 + Tozasertib (first compound 0.01 µM) was found to be 0.319; in the assay with AZD8055 + Tozasertib (first compound 0.03162 µM), 0.27; in the assay with AZD8055 + Tozasertib (first compound 0.1 µM), 0.28; in the assay with AZD8055 + Tozasertib (first compound 0.3162 µM) it was 0.143; with AZD8055 + Tozasertib (first compound 1 µM), 0.088; with AZD8055 + OSI-027 (first compound 0.01 µM) it was 0.514. The relative viability is 0.624 with AZD8055 + OSI-027 (first compound 0.03162 µM); 0.568 in the assay with AZD8055 + OSI-027 (first compound 0.1 µM); 0.315 with AZD8055 + OSI-027 (first compound 0.3162 µM); 0.193 in the assay with AZD8055 + OSI-027 (first compound 1 µM); 1.18 with AZD8055 + Linsitinib (first compound 0.01 µM); 0.942 in the assay with AZD8055 + Linsitinib (first compound 0.03162 µM). The relative viability with AZD8055 + Linsitinib (first compound 0.1 µM) was found to be 0.601; in the assay with AZD8055 + Linsitinib (first compound 0.3162 µM) it was 0.439; in the assay with AZD8055 + Linsitinib (first compound 1 µM) it was 0.167; in the assay with AZD8055 + Crizotinib (first compound 0.01 µM), 1; in the assay with AZD8055 + Crizotinib (first compound 0.03162 µM), 0.619; with AZD8055 + Crizotinib (first compound 0.1 µM), 0.445. Further, the relative viability turned out to be 0.303 with AZD8055 + Crizotinib (first compound 0.3162 µM) and 0.177 in the assay with AZD8055 + Crizotinib (first compound 1 µM).
For 201T, the relative viability with AZD8055 + Tozasertib (first compound 0.01 µM) was 0.98; with AZD8055 + Tozasertib (first compound 0.03162 µM) it was 0.895; with AZD8055 + Tozasertib (first compound 0.1 µM) it was 0.813; in the assay with AZD8055 + Tozasertib (first compound 0.3162 µM), 0.529; with AZD8055 + Tozasertib (first compound 1 µM), 0.595; with AZD8055 + OSI-027 (first compound 0.01 µM), 0.786. Further, the relative viability with AZD8055 + OSI-027 (first compound 0.03162 µM) amounted to 0.746; with AZD8055 + OSI-027 (first compound 0.1 µM) it was 0.676; with AZD8055 + OSI-027 (first compound 0.3162 µM), 0.484; with AZD8055 + OSI-027 (first compound 1 µM), 0.383; with AZD8055 + Linsitinib (first compound 0.01 µM) it was 0.997; with AZD8055 + Linsitinib (first compound 0.03162 µM), 0.906. Moreover, the relative viability came to 0.758 in the assay with AZD8055 + Linsitinib (first compound 0.1 µM); 0.609 in the assay with AZD8055 + Linsitinib (first compound 0.3162 µM); 0.554 with AZD8055 + Linsitinib (first compound 1 µM); 1.09 with AZD8055 + Crizotinib (first compound 0.01 µM); 1.02 with AZD8055 + Crizotinib (first compound 0.03162 µM); 0.997 with AZD8055 + Crizotinib (first compound 0.1 µM). In addition, the relative viability was determined as 0.772 in the assay with AZD8055 + Crizotinib (first compound 0.3162 µM) and 0.721 with AZD8055 + Crizotinib (first compound 1 µM).
Regarding NCI-H1650, the relative viability in the assay with AZD8055 + Tozasertib (first compound 0.01 µM) came out at 0.366; with AZD8055 + Tozasertib (first compound 0.03162 µM), 0.446; in the assay with AZD8055 + Tozasertib (first compound 0.1 µM), 0.422; with AZD8055 + Tozasertib (first compound 0.3162 µM), 0.534; with AZD8055 + Tozasertib (first compound 1 µM), 0.252; with AZD8055 + OSI-027 (first compound 0.01 µM), 0.678. Moreover, the relative viability is 0.776 with AZD8055 + OSI-027 (first compound 0.03162 µM); 0.484 with AZD8055 + OSI-027 (first compound 0.1 µM); 0.435 in the assay with AZD8055 + OSI-027 (first compound 0.3162 µM); 0.39 with AZD8055 + OSI-027 (first compound 1 µM); 0.919 with AZD8055 + Crizotinib (first compound 0.01 µM); 1.24 with AZD8055 + Crizotinib (first compound 0.03162 µM). Besides, the results for the relative viability with AZD8055 + Crizotinib (first compound 0.1 µM), with AZD8055 + Crizotinib (first compound 0.3162 µM) and with AZD8055 + Crizotinib (first compound 1 µM) were 1.02, 0.518 and 0.43, respectively.
For NCI-H2170, the relative viability turned out to be 0.794 in the assay with AZD8055 + Tozasertib (first compound 0.01 µM); 0.732 with AZD8055 + Tozasertib (first compound 0.03162 µM); 0.485 with AZD8055 + Tozasertib (first compound 0.1 µM); 0.349 with AZD8055 + Tozasertib (first compound 0.3162 µM); 0.239 with AZD8055 + Tozasertib (first compound 1 µM); 0.665 with AZD8055 + OSI-027 (first compound 0.01 µM). Further, the relative viability was 0.701 in the assay with AZD8055 + OSI-027 (first compound 0.03162 µM); 0.624 with AZD8055 + OSI-027 (first compound 0.1 µM); 0.386 with AZD8055 + OSI-027 (first compound 0.3162 µM); 0.392 in the assay with AZD8055 + OSI-027 (first compound 1 µM); 1.2 in the assay with AZD8055 + Crizotinib (first compound 0.01 µM); 1.07 with AZD8055 + Crizotinib (first compound 0.03162 µM). Besides, the relative viability with AZD8055 + Crizotinib (first compound 0.1 µM) is 0.641; with AZD8055 + Crizotinib (first compound 0.3162 µM), 0.394; with AZD8055 + Crizotinib (first compound 1 µM) it was 0.376.
For NCI-H1563, the relative viability with AZD8055 + OSI-027 (first compound 0.01 µM) worked out at 0.776; with AZD8055 + OSI-027 (first compound 0.03162 µM), 0.731; with AZD8055 + OSI-027 (first compound 0.1 µM) it was 0.681; with AZD8055 + OSI-027 (first compound 0.3162 µM) it was 0.629; with AZD8055 + OSI-027 (first compound 1 µM), 0.599; with AZD8055 + Linsitinib (first compound 0.01 µM) it was 0.971. Moreover, the relative viability with AZD8055 + Linsitinib (first compound 0.03162 µM) is 0.802; with AZD8055 + Linsitinib (first compound 0.1 µM) it was 0.699; with AZD8055 + Linsitinib (first compound 0.3162 µM), 0.625; in the assay with AZD8055 + Linsitinib (first compound 1 µM), 0.743; with AZD8055 + Crizotinib (first compound 0.01 µM), 0.769; in the assay with AZD8055 + Crizotinib (first compound 0.03162 µM), 0.81. The figures for the relative viability in the assay with AZD8055 + Crizotinib (first compound 0.1 µM), with AZD8055 + Crizotinib (first compound 0.3162 µM) and in the assay with AZD8055 + Crizotinib (first compound 1 µM) were 0.697, 0.6 and 0.679, respectively.
For the cell line EBC-1, the relative viability with AZD8055 + Linsitinib (first compound 0.01 µM) stood at 1.06; with AZD8055 + Linsitinib (first compound 0.03162 µM), 0.724; with AZD8055 + Linsitinib (first compound 0.1 µM) it was 0.437; with AZD8055 + Linsitinib (first compound 0.3162 µM), 0.235; with AZD8055 + Linsitinib (first compound 1 µM) it was 0.16; with AZD8055 + Crizotinib (first compound 0.01 µM), 0.155. Further, the relative viability with AZD8055 + Crizotinib (first compound 0.03162 µM) stood at 0.204; with AZD8055 + Crizotinib (first compound 0.1 µM), 0.197; with AZD8055 + Crizotinib (first compound 0.3162 µM), 0.221; with AZD8055 + Crizotinib (first compound 1 µM) it was 0.219.
As for Calu-6, the relative viability in the assay with AZD8055 + Linsitinib (first compound 0.01 µM) is 1.09; in the assay with AZD8055 + Linsitinib (first compound 0.03162 µM) it was 0.77; with AZD8055 + Linsitinib (first compound 0.1 µM), 0.637; with AZD8055 + Linsitinib (first compound 0.3162 µM), 0.356; with AZD8055 + Linsitinib (first compound 1 µM), 0.329; in the assay with AZD8055 + Crizotinib (first compound 0.01 µM), 1.03. Further, the relative viability came to 0.699 with AZD8055 + Crizotinib (first compound 0.03162 µM), 0.556 with AZD8055 + Crizotinib (first compound 0.1 µM), 0.42 with AZD8055 + Crizotinib (first compound 0.3162 µM) and 0.322 in the assay with AZD8055 + Crizotinib (first compound 1 µM).
